Laboratory results as given in PubChem BioAssay (NCI).
Where “and” joins values, the source holds several entries; their conditions need not be identical. Identical values can stand only once.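 A five-concentration, 48-hour dose response in 96-well plates underlies each endpoint, interpolated linearly between surrounding concentrations. Here, GI50 denotes the concentration required for 50% inhibition of growth. TGI marks complete inhibition of growth.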

Assays:
Experiment in all cases: NCI tumour cell line growth inhibition, 48 h
SF-295 CNS = test system: SF-295 CNS
M14 melanoma = test system: M14 melanoma
SNB-19 CNS = test system: SNB-19 CNS
HL-60(TB) leukemia = test system: HL-60(TB) leukemia
NCI-H226 lung = test system: NCI-H226 lung
OVCAR-5 ovarian = test system: OVCAR-5 ovarian
EKVX NSCLC = test system: EKVX NSCLC
U251 CNS = test system: U251 CNS
KM12 colon = test system: KM12 colon
BT-549 breast = test system: BT-549 breast

Compound | TGI (SF-295 CNS) | TGI (M14 melanoma) | TGI (SNB-19 CNS) | TGI (HL-60(TB) leukemia) | TGI (NCI-H226 lung) | TGI (OVCAR-5 ovarian) | TGI (EKVX NSCLC) | TGI (U251 CNS) | TGI (KM12 colon) | GI50 (SF-295 CNS) | GI50 (M14 melanoma) | GI50 (SNB-19 CNS) | GI50 (HL-60(TB) leukemia) | GI50 (NCI-H226 lung) | GI50 (OVCAR-5 ovarian) | GI50 (EKVX NSCLC) | GI50 (U251 CNS) | GI50 (KM12 colon) | TGI (BT-549 breast) | GI50 (BT-549 breast)
O=C(OC[C@H]1O[C@@H](OC(=O)c2cc(O)c(O)c(O)c2)[C@H](OC(=O)c2cc(O)c(O)c(O)c2)[C@@H](OC(=O)c2cc(O)c(O)c(O)c2)[C@@H]1OC(=O)c1cc(O)c(O)c(O)c1)c1cc(O)c(O)c(O)c1 | 20.3 µM | 24.4 µM | > 100 µM | > 100 µM | 7.98 µM | 52.5 µM | 70.9 µM | 54.3 µM | 6.65 µM | – | – | – | – | – | – | – | – | – | – | –
O=c1[nH]c(=O)n(C2OC3COC2C3O)cc1F (stereo not drawn) | > 100 µM | > 100 µM | > 100 µM | > 100 µM | > 100 µM | > 100 µM | > 100 µM | > 100 µM | > 100 µM | – | – | – | – | – | – | – | – | – | – | –
C=C1C(=O)OC2/C=C(\C=O)CC/C=C(\C)C(O)C[C@@H]12 (stereo partly drawn) | 28.3 µM | 12.4 µM | 29.1 µM | > 21.4 µM | 43.9 µM | 38.2 µM | 29.1 µM | 35.4 µM | 18.5 µM | – | – | – | – | – | – | – | – | – | – | –
O=C([CH-]C(=O)C(F)(F)F)c1ccccc1.O=C([CH-]C(=O)C(F)(F)F)c1ccccc1.O=C([CH-]C(=O)C(F)(F)F)c1ccccc1.O=C([CH-]C(=O)C(F)(F)F)c1ccccc1.[Eu+3].c1ccncc1 | 31 µM | 39.5 µM | 94.8 µM | 13.8 µM | 79 µM | > 100 µM | 58.6 µM | > 100 µM | 8.11 µM | 3.02 µM | 9.52 µM | 4.33 µM | 3.69 µM | 15.6 µM | 41 µM | 11.4 µM | 5.02 µM | 3.08 µM | – | –
COc1ccc(/C=C2\C(=O)N(C(=O)Cc3ccccc3)N=C2C)cc1OC | > 100 µM | > 100 µM | > 100 µM | > 100 µM | > 100 µM | > 100 µM | > 100 µM | – | > 100 µM | – | – | – | – | – | – | – | – | – | – | –
N.N.N.N.N.N.O=N[O-].[Br-].[Co+3].[Co+3].[OH3+].[OH3+] | > 100 µM | > 100 µM | > 100 µM | > 100 µM | > 100 µM | > 100 µM | > 100 µM | – | > 100 µM | > 100 µM | > 100 µM | > 100 µM | > 100 µM | > 100 µM | > 100 µM | 74.3 µM | – | > 100 µM | – | –
c1cc(CNC2C3CCC(C3)C2c2c[nH]c3ccccc23)cc(CNC2C3CCC(C3)C2c2c[nH]c3ccccc23)c1 (stereo not drawn) | – | 5.3 µM | 2.26 µM | 4.21 µM | – | 3.39 µM and 3.4 µM | 3.34 µM | 1.32 µM | 4.04 µM | – | – | – | 1.6 µM | – | – | – | – | – | 3.24 µM | –
COC(=O)c1c(-c2ccccc2)sc(-c2cccc3ccccc23)c1C(=O)OC | > 100 µM | > 100 µM | > 100 µM | > 100 µM | > 100 µM | > 100 µM | > 100 µM | > 100 µM | > 100 µM | – | – | – | – | – | – | – | – | – | – | –
Cc1cc2c(=O)c3ccccc3[nH]c2c(C(=O)O)c1C | > 100 µM | – | > 100 µM | > 100 µM | – | – | > 100 µM | > 100 µM | > 100 µM | – | – | – | – | – | – | – | – | – | – | –
CCOC(=O)COS(=O)(=O)C(F)(F)F | > 100 µM | > 100 µM | > 100 µM | > 100 µM | > 100 µM | > 100 µM | > 100 µM | > 100 µM | > 100 µM | – | – | – | – | – | – | – | – | – | – | –
C=C=C(C(=O)OC)S(=O)c1ccc([N+](=O)[O-])cc1[N+](=O)[O-] (stereo not drawn) | > 100 µM | > 69.5 µM | > 100 µM | 45.3 µM | > 100 µM | > 100 µM | > 100 µM | 62.7 µM | > 72 µM | – | – | – | – | – | – | – | – | – | – | –
COc1cc(Br)c(C=Nc2cccc3ccc(OS(=O)(=O)c4cccc([N+](=O)[O-])c4)cc23)cc1OC | 60.4 µM | – | > 100 µM | – | 84.1 µM | > 100 µM | > 100 µM | > 100 µM | > 100 µM | – | – | – | – | – | – | – | – | – | – | –
Nc1nc(CCC(=O)Nc2cccc(C(F)(F)F)c2)cc(-c2ccc3ccccc3c2)n1 | > 100 µM | > 100 µM | > 100 µM | > 100 µM | > 100 µM | > 100 µM | > 100 µM | > 100 µM | > 100 µM | – | – | – | – | – | – | – | – | – | – | –
COC1CC(OC(=O)c2ccccc2)C(OC(=O)c2ccccc2)C(C)O1 (stereo not drawn) | > 100 µM | > 100 µM | > 100 µM | > 100 µM | > 100 µM | > 100 µM | > 100 µM | > 100 µM | > 100 µM | – | – | – | – | – | – | – | – | – | – | –
COc1ccc(-c2cn[nH]c2-c2cc(OC)c3c(c2)OCCO3)cc1 | 12.1 µM | 21.1 µM | > 100 µM | 13 µM | 23.4 µM | > 100 µM | – | 12.2 µM | 7.85 µM | 0.0735 µM | 0.0694 µM | 0.33 µM | 0.0815 µM | 2.07 µM | 0.683 µM | – | 0.159 µM | 0.0502 µM | 22 µM | 0.494 µM
S=c1nc(-c2cccnc2)[nH][nH]1 | > 100 µM | > 100 µM | > 100 µM | > 100 µM | – | > 100 µM | – | > 100 µM | > 100 µM | – | – | – | – | – | – | – | – | – | – | –
C1=CC=C2NCCOCCNC3=CC=CC=CC3=NCCOCCN=C2C=C1 | > 100 µM | 41.6 µM | > 100 µM | 70.5 µM | > 100 µM | > 100 µM | > 100 µM | > 100 µM | > 100 µM | – | – | – | – | – | – | – | – | – | – | –
CCc1c(C)c(C#N)c(=S)n(C2OC(CO)C(O)C(O)C2O)c1C (stereo not drawn) | > 100 µM | > 100 µM | > 100 µM | > 100 µM | > 100 µM | > 100 µM | > 100 µM | > 100 µM | > 100 µM | – | – | – | – | – | – | – | – | – | – | –
COC(=O)C1=C(C(=O)OC)SC(=C(Cl)C(=S)Sc2ccccc2N)S1 | 64.5 µM | 30.3 µM | > 100 µM | > 100 µM | > 100 µM | 41.5 µM | – | 35.4 µM | > 100 µM | 26.2 µM | 7.35 µM | 32 µM | > 100 µM | 30.7 µM | 19.3 µM | – | 18.5 µM | > 100 µM | 8.6 µM | 2.03 µM
Cc1cc(-c2nnc3n2CCCCC3)c(C)n1-c1ccc(Cl)c(Cl)c1 | 52.5 µM | 33.5 µM | 47.1 µM | 61.2 µM | – | > 100 µM | – | 31.2 µM | 32 µM | 16.4 µM | 14.9 µM | 15.5 µM | 20.6 µM | – | 39 µM | – | 14.5 µM | 16.6 µM | 20.3 µM | 7.1 µM
